Measured values: patent US20100076047A1, “Amorphous 1-(9H-carbazol-4-yloxy)-3-[[2-(2-methoxyphenoxy)ethyl]amino]-2-propanol phosphate salt” (priority 2007, published 2010)
Counter-ions that a name gives are not always drawn.

How the values were obtained:
[1] = storage stability of the solid amorphous form (XRD); format: physicochemical
Text: Solid amorphous Carvedilol dihydrogen phosphate is provided herein.

[2] = moisture uptake on exposure to air; format: physicochemical

- stability on storage ([1]; stored under controlled humidity conditions, no conversion to a crystalline form): stable
- stability profile compared to the existing crystalline forms ([1]; versus existing crystalline forms): superior stability profile
- XRD pattern after moisture uptake ([2]; after picking up moisture up to 7%): remains identical
- moisture picked up when exposed to air ([2]; material of low moisture content exposed to air, forming higher hydrates): up to 7%
SMILES: COc1ccccc1OCCNCC(O)COc1cccc2[nH]c3ccccc3c12 (stereo not shown) [1-(9H-carbazol-4-yloxy)-3-[[2-(2-methoxyphenoxy)ethyl]amino]-2-propanol phosphate salt]
